Assay results: patent US20040248208A1, “Screening method” (priority 2001, published 2004)

Columns and labels:
Type in all cases: cell-based
TGR4 [1] = target: T1, TGR4 (Homo sapiens, UniProt Q9H1C0); assay: Intracellular calcium ion mobilization activity in TGR4-expressing CHO cells (FLIPR); settings: for EC50: TGR4-expressing CHO cells, 100% = reaction when 2 × 10^−6 M farnesyl 2-phosphate was added, read-out: Intracellular Ca^2+ mobilization activity (EC50); for concentration dependency of intracellular calcium ion mobilization activity: CHO-TGR4 (FIG. 16)
T1 construct: expressed in transfected cells
Description: Using TGR4 expression vector prepared in EXAMPLE 1, according to the publicly known method, the CHO cells stably expressing TGR4, which is designated CHO-TGR4, were prepared. CHO-TGR4 or CHO-mock cells, in which no receptor gene is introduced, was seeded to 96-well plate of Black plate, Clear bottom available from Costar at the concentration of 30,000 cells/well. After cultivation at 37° C. in the presence of 5% CO2 for overnight, the cells were used for assay. For washing buffer, Hank's balanced salt solution (HBSS, GibcoBRL) supplemented with 20 mM HEPES (pH7.4) and 2.5 mM probeneside (Sigma) was prepared. For sample buffer, the washing buffer supplemented with 0.1% bovine serum albumin (BSA, Sigma) was used. The washing buffer supplemented with 1% FBS, 4 μM Fluo 3-AM (Wako Pure Chemicals) and 0.04% Pluronic acid (Molecular Probes) was used as a dye loading solution. After discarding the medium, adding the dye loading solution and incubating the cells at 37° C. for 1 hour, using the plate washer, the cells were washed with the washing buffer. The cells were set to Fluorometric Imaging Plate Reader (FLIPR, Molecular Device) and the change of intracellular calcium ion concentration during three minutes after addition of sample was measured. FPP and LPA were added to sample to make a final concentration 2.5 μM each.
As well as the method described in EXAMPLE 7, using TGR4-expressing CHO cells and mock CHO cells, a study on concentration dependency of intracellular calcium ion mobilization activity by substances associated with various phospholipids compounds was made. For substances associated with various phospholipids compounds, geranylgeranyl 2-phosphate, farnesyl 2-phosphate, geranyl 2-phosphate, lysophosphatidic acid, sphingosine 1-phosphate, nordeoxycholic acid, deoxycholic acid, geranylgeranyol, farnesol were used.

TGR4 [2] = target: T1, TGR4; assay: cAMP production in TGR4-expressing CHO cells; settings: for cAMP production increasing activity dependent on concentration: CHO-TGR4 (FIG. 18); for level of cAMP production: final concentration 2 μM, 30 minutes, CHO-TGR4 versus CHO-mock (FIGS. 7 and 8)
Description: The CHO-TGR4 prepared in EXAMPLE 2, or the CHO-mock cells, in which no receptor gene is introduced, were seeded on 96-well plate at the concentration of 25,000 cells/well. After cultivation at 37° C. in the presence of 5% CO2 for overnight, the cells were used for assay. For the sample buffer, HBSS supplemented with 0.1% BSA and 0.2 mM IBMX (Sigma) was used. The cells were washed twice with the sample buffer and pre-incubated at 37° C. for 30 minutes. Thereafter, the cells were also washed twice and incubated at 37° C. for 30 minutes after adding of sample. Farnesyl 2-phosphate or lysophophatidic acid was added to the sample to make a finalconcentration 2 μM. After incubation with the sample, a level of cAMP production was measured using cAMP Screen System (ABI).
As well as the method described in EXAMPLE 8, using TGR4-expressing CHO cells and mock CHO cells, a study on concentration dependency of cAMP production increasing activity by substances associated with various phospholipids compounds was made. […] For abbreviation of compounds, see EXAMPLE 9.

TGR4 [3] = target: T1, TGR4; assay: CRE-luciferase reporter gene assay in CHO cells transiently expressing TGR4; settings: 4 hours, TGR4 and Gi co-transfected with pCRE-Luc (FIG. 4)
Description: The expression vector plasmid pAK-TGR4 or pAK-Gi, which was prepared by inserting TGR4 cDNA or suppressive G protein a subunit Gi cDNA into pAKKO-111H, the expression plasmid vector for animal cells (the same plasmid vector as pAKKO-111H described in Biochem. Biophys. Acta by Hinuma, S. et al., Vol. 1219, pp. 251-259, 1994), and original pAKKO-111H, in which no specific gene was inserted, were transfected into the CHO cells by the following method.
Using these vectors, Escherichia coli JM109 was transformed. A colony obtained was isolated and cultured for preparation of plasmid with QIAGEN Plasmid Maxi Kit (Qiagen). Further, plasmid of pCRE-Luc (CLONTECH), in which luciferase gene is ligated as a reporter downstream cAMP response element (CRE), was prepared in a similar method. The CHO-mock cells, wherein the CHO (dhfr^−0 cells were transformed with pAKKO-111H, were seeded in 96-well black plate (Costar) at 40,000 cells/well and 100 μl of culture volume, and were cultured for overnight. For a culture on the plate, DMEM (Dulbecco's modified Eagle's medium, CibcoBRL) supplemented with nothing but 10% fetal bovine serum was used. In order to detect an increase of expression level of the reporter gene more clearly, the pAK-Gi was co-transfected with the pAK-TGR4. Each plasmid was added to 240 μl of Opti-MEM-I (GibcoBRL) at the ratio of 7:3:1 of pAK-TGR4:pAK-Gi:reporter plasmid pCRE-Luc. This solution was mixed with the same volume of solution wherein 10 μl of Lipofectamine 2000 was added to 240 μl of Opti-MEM-I to form a complex of liposome and plasmid according to the method described in the manual attached to Lipofectamine 2000. To culture of CHO-mock cells, 25 μl/well of the above-mentioned solution was added. After 4 hours at 37° C., a culture broth was replaced to an assay buffer (DMEM supplemented with 0.1% bovine serum albumin) to be serum-free for introduction of the plasmid. Then, these cells were cultured at 37° C. under the condition of 5% CO2 for overnight.
To the CHO-mock cells transfected as described above, geranylgeranyl 2-phosphate (GGPP, Sigma), farnesyl 2-phosphate (FPP, Sigma) and lysophosphatidic acid (LPA, Sigma) were added to the concentration of 1 μM, 0.1 μM, and […], respectively, and incubated at 37° C. under the condition of 5% CO2 for 4 hours. After discarding the supernatant, 50 μl of Picagene LT2.0, the substrate for assaying luciferase activity were added, and luminescence level of luciferase was measured using plate reader (ARVO sx multilabel counter, Wallac).

TGR4-GFP fusion protein = target: T2, TGR4-GFP fusion protein (Homo sapiens, UniProt Q9H1C0); assay: Intracellular translocation of TGR4-GFP fusion protein expressed in CHO cells; settings: 10^−6 M, thirty minutes after addition
T2 construct: expressed in transfected cells; host or cells: CHO-mock cells (CHO dhfr- transformed with pAKKO-111H), transient, Lipofectamine 2000
Excerpt: Expression plasmid wherein fusion protein that cDNA encoding Green Fluorescent protein (GFP) isolated from Aequorea coerulescens was ligated to the C-terminus of TGR4 by adjusting a translation frame, was constructed. As GFP cDNA, a fragment excised from GFP-expressing vector pQBI25 (Takara Shuzo) was used. The stop codon of TGR4 was modified to the recognition sequence of restriction enzyme NheI by the PCR method. GFP fragment was ligated to the terminus, and the obtained fragment was inserted into the expression vector pAKKO-111H. The thus obtained plasmid, which is an expression vector for fusion protein of TGR4 and GFP (hereinafter referred to as TGR4-GFP) was transfected to CHO-mock cells by the following method. The CHO-mock cells were suspended in growth medium (DMEM (Dulbecco's Modified Eagle Medium) (GIBCO BRL) supplemented with 10% fetal bovine serum (GIBCO BRL)), seeded on Lab-Tek II coverglass chamber (Nalgen Nunc), which has 4 chambers, at the concentration of 0.6×10^5 cells/chamber. After cultivation at 37° C. in the presence of 5% CO2 for overnight, transfection was carried out. For transfection, Lipofectamine™ 2000 Reagent (GIBCO BRL) was used. Firstly, 2 μl of Lipofectamine™ 2000 Reagent and 50 μl of OPTI-MEM-I (GIBCO BRL) were admixed and stood for 20 minutes at room temperature to form a complex of DNA with lipofectamine. […]

TGR4 [4] = target: T1, TGR4; assay: Activation of p44/42 MAP kinase in human TGR4-expressing CHO cells; settings: 0.1 μM; TGR4-expressing CHO cells versus mock cells
Description: Human TGR4-expressing CHO cells and mock cells were seeded on 6-well plate at the concentration of 3×10^5 cells/well and cultured for overnight. For removal of serum, the medium was replaced with α-MEM including no nucleic acid supplemented with 0.1% BSA, and the cells were further incubated for overnight. Until just before assay, preincubation using the same medium for 2 hours was carried out. By adding 0.1 μM farnesyl 2-phosphate to the medium, the treatment was started. With respect to each given time, the medium was removed by aspiration and the reaction was terminated by addition of sumple buffer for SDS-PAGE. In accordance with conventional manner, SDS-PAGE was done and then the proteins were transferred to nitrocellulose membrane. Following the method described in the manual of Phospho Plus p44/42 MAPK (Thr202/Tyr204) Antibody Kit (Cell Signaling), detection of p44/42 MAP kinase was performed. […] Thus it became clear that the enzyme was activated.

| Compound | EC50 (TGR4 [1]) [µM] | further results |
| --- | --- | --- |
| C[C@H](CCC(=O)O)[C@H]1CC[C@H]2[C@@H]3CC[C@@H]4C[C@H](O)CC[C@]4(C)[C@H]3C[C@H](O)[C@]12C [Deoxycholic acid] | > 2.5 |  |
| CC(C)=CCOP(=O)(O)OP(=O)(O)O [Dimethylaryl 2-phosphate] | > 2.5 |  |
| CC(C)=CCCC(C)=CCCC(C)=CCO [Farnesol] | > 2.5 |  |
| CC(C)=CCC/C(C)=C/CC/C(C)=C/COP(=O)(O)OP(=O)(O)O [Farnesyl 2-phosphate, farnesyl 2-phosphate] | 0.029 | cAMP production increasing activity dependent on concentration (TGR4 [2]): activity dependent on concentration was perceived; level of cAMP production (TGR4 [2]): increased in the manner specific to CHO-TGR4; luciferase activity (TGR4 [3]; 0.1 μM): increase of luciferase activity was detected; luciferase activity (TGR4 [3]; 1 μM): increase of luciferase activity was detected; translocation of TGR4-GFP fluorescence from cell membrane (TGR4-GFP fusion protein): translocated to cytoplasm; concentration dependency of intracellular calcium ion mobilization activity (TGR4 [1]): activity dependent on concentration was perceived; intracellular calcium ion mobilization activity (TGR4 [1]; final concentration 2.5 μM, CHO-TGR4 versus CHO-mock (FIGS. 5 and 6)): increased in the manner specific to CHO-TGR4; phosphorylation of p44/42 MAP kinase (TGR4 [4]): phosphorylation of MAP kinase specific to human TGR-expressing CHO cells |
| CC(C)=CCC/C(C)=C/COP(=O)(O)OP(=O)(O)O [Geranyl 2-phosphate] | > 2.5 |  |
| CC(C)=CCC/C(C)=C/CCC(=O)O [Geranyl acetic acid] | > 2.5 |  |
| CC(=O)CC/C=C(\C)CCC=C(C)C [Geranyl acetone] | > 2.5 |  |
| CC(C)=CCC/C(C)=C/CN [Geranylamine] | > 2.5 |  |
| CC(C)=CCC/C(C)=C/CCl [Geranylchloride] | > 2.5 |  |
| CC(C)=CCC/C(C)=C/CC/C(C)=C/CC/C(C)=C/COP(=O)(O)OP(=O)(O)O [Geranylgeranyl 2-phosphate, geranylgeranyl 2-phosphate] | 0.019 | cAMP production increasing activity dependent on concentration (TGR4 [2]): activity dependent on concentration was perceived; luciferase activity (TGR4 [3]; 0.1 μM): increase of luciferase activity was detected; luciferase activity (TGR4 [3]; 1 μM): increase of luciferase activity was detected; concentration dependency of intracellular calcium ion mobilization activity (TGR4 [1]): activity dependent on concentration was perceived |
| CC(C)=CCC/C(C)=C/CC/C(C)=C/CC/C(C)=C/CO [Geranylgeranyol] | > 2.5 |  |
| CC(C)=CCC/C(C)=C/CO [Geranyol] | > 2.5 |  |
| C[C@H](CCC(=O)O)[C@H]1CC[C@H]2[C@@H]3CC[C@@H]4C[C@H](O)CC[C@]4(C)[C@H]3CC[C@]12C [Lithocolic acid] | > 2.5 |  |
| C[C@H](CC(=O)O)[C@H]1CC[C@H]2[C@@H]3CC[C@@H]4C[C@H](O)CC[C@]4(C)[C@H]3C[C@H](O)[C@]12C [Nordeoxycholic acid] | > 2.5 |  |
| CCCCCCCCCCCCC/C=C/[C@@H](O)[C@@H](N)COP(=O)(O)O [Sphingosine 1-phosphate] | 1.5 |  |
| lysophosphatidic acid |  | level of cAMP production (TGR4 [2]): increased in the manner specific to CHO-TGR4; luciferase activity (TGR4 [3]; 1 μM): increase of luciferase activity was detected |
